This note sets out measurements from the METLIN SMRT retention time set (Domingo-Almenara et al. 2019).

The series in a line: gradient 5% acetonitrile 3 min, to 50% in 2 min, to 85% in 15 min, held 3 min, 100 µL/min. Particulars: column: Zorbax Extend-C18 2.1 x 50 mm; eluents: water / acetonitrile, 0.1% formic acid. In short, it runs like this:
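Over 3 months, pure standards in mixtures of ~100 molecules were run by HPLC coupled to a quadrupole time-of-flight mass spectrometer in positive and negative ionization mode. The column was a Zorbax Extend-C18 (2.1 × 50 mm, 1.8 μm) at 100 μL/min, eluted with water and acetonitrile each holding 0.1% formic acid, with 40 μL dead and 900 μL dwell volumes. Retention time was determined from adduct peaks chosen by software and checked manually.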
As to `Cc1nc(-c2ccccn2)cc2nn(CC(=O)N3CCCc4ccccc43)c(=O)n12`, the RP-LC retention time is 789 s.

`O=C(Cc1cccnc1)N1CCC(c2nc(-c3ccncc3)no2)C1` (stereo not drawn) gave an RP-LC retention time of 548 s.

Consider `COC(=O)c1ccc(NC(=O)c2cnc3c(c2)c(=O)n(C)c(=O)n3-c2ccccc2)cc1`, for which the RP-LC retention time was determined as 879 s.

As to `O=S(=O)(Nc1ccc(F)cc1F)c1ccc2c(c1)-c1oncc1CO2`, the RP-LC retention time was found to be 873 s.

The compound `Cc1ccc(NC(=O)NCC(c2cccnc2)c2cn(C)c3ccccc23)cc1C` (stereo not drawn) returned an RP-LC retention time of 753 s.

In the case of `CN1C(=O)c2cccnc2Sc2cc(NC(=O)C3CCCC3)ccc21`, the RP-LC retention time was determined as 749 s.

On to `CC1CC(C)OP(=O)(OCCC#N)O1` (stereo not drawn), for which the RP-LC retention time came to 650 s.

Turning to `COc1ccc(OCC(=O)NCc2cc(-c3cc4ccccc4o3)on2)cc1`, the RP-LC retention time was 893 s.

`COCc1cc(=O)n(CC(=O)Nc2cccc(F)c2)c(N)n1` displayed an RP-LC retention time of 618 s.

In turn, `CN(C)CCNC(=O)c1ccc(CS(=O)Cc2ccccc2Cl)o1` (stereo not drawn) displayed an RP-LC retention time of 597 s.

`Cc1cc(N2CCN(S(=O)(=O)c3cc(F)ccc3C)CC2)nc(N2CCCC2)n1` returned an RP-LC retention time of 783 s.

Compound `COc1ccc(OCc2nnc3sc(-c4cc(CC(C)C)[nH]n4)nn23)cc1` showed an RP-LC retention time of 917 s.

On to `Cc1ccc(NS(=O)(=O)c2ccc(-c3c(C)noc3C)cc2)c(Cl)c1`, for which the RP-LC retention time was found to be 1020 s.

The compound `O=C(NCc1ccc(F)c(Cl)c1)C1CCN(c2nnc3ccccn23)CC1` had an RP-LC retention time of 686 s.

As to `Cn1nc(C(=O)N2CCCC2)c2c1CCN(C(=O)CCC(=O)N1CCCCC1)C2`, the RP-LC retention time stood at 653 s.

In turn, `CCn1nc(C)n2cc(S(=O)(=O)NCc3ccc(F)cc3F)cc2c1=O` showed an RP-LC retention time of 856 s.

For the compound `CCn1nnnc1NCc1ccc2c(c1)n(C)c(=O)n2C`, the RP-LC retention time was 617 s.

Compound `Cc1ccc(CNC(=O)C2CCN(S(=O)(=O)c3cc(-c4noc(C5CC5)n4)cs3)CC2)cc1` registered an RP-LC retention time of 998 s.

Compound `O=C1NC2(CCN(C(=O)c3ccc(F)cc3)CC2)N=C1c1ccc(Cl)cc1` displayed an RP-LC retention time of 872 s.

For the compound `O=C(O)c1ccc(N2CCCC(CN3CCCC3)C2)c(NS(=O)(=O)c2ccccc2)c1` (stereo not drawn), the RP-LC retention time was 643 s.

In turn, `O=C(NCc1ccc(F)cc1)c1ccc(-c2cccs2)nc1` showed an RP-LC retention time of 869 s.

`CCN1C(=O)c2c(C(=O)NCc3cccc(Cl)c3)ncn2CC1(C)C(=O)NC1CCCC1` (stereo not drawn): the RP-LC retention time came to 804 s.

In the case of `CC(=O)O[C@H]1Cc2ccccc2N(C(N)=O)c2ccccc21`, the RP-LC retention time stood at 782 s.

Turning to `COc1ccc(NC(=O)Nc2cccc(-c3ccc(N4CCCCC4)nn3)c2)c(OC)c1`, the RP-LC retention time is 719 s.

`CCCn1cc(S(=O)(=O)NCc2cccc(C)c2)c2cccnc21` showed an RP-LC retention time of 943 s.

The compound `O=C(CCc1nc2ccccc2s1)N1CCC(c2noc(-c3ccccn3)n2)C1` (stereo not drawn) returned an RP-LC retention time of 755 s.

In turn, `Cc1c(C(=O)NCC(C)C)cnn1-c1cc(-c2nc(C(C)C)no2)ccn1` had an RP-LC retention time of 1010 s.

Compound `CC1CO/C(=C2\C(=O)OCC2C)C1` (stereo not drawn) returned an RP-LC retention time of 812 s.

In turn, `Cc1noc(C2CN(C(=O)Nc3ccccc3Cl)CC23CCOCC3)n1` (stereo not drawn) displayed an RP-LC retention time of 732 s.

As to `Cc1ccccc1CNC(=O)C1(C)CCCN(C(=O)Nc2ccc(F)cc2)C1` (stereo not drawn), the RP-LC retention time came to 899 s.

The compound `Cc1cccc(NC(=O)c2ncn3c2C(=O)N(C2CC2)C(C)(C(=O)NC2CCCC2)C3)c1C` (stereo not drawn) showed an RP-LC retention time of 842 s.

`Cc1nc(Nc2ccc(Cl)cn2)sc1C(=O)NCCN1CCCCC1`: the RP-LC retention time was found to be 637 s.

Turning to `O=C(Nc1ccc(OCc2nnc(-c3ccccc3)o2)cc1)c1n[nH]c2c1CCCC2`, the RP-LC retention time was 886 s.
